Measurements: PubChem BioAssay AID256 (DTP/NCI, 2004)
Several values for one entry are separate records, joined by “and”; a condition that tells them apart may be missing. Equal values may be shown once. Toxic doses and inconclusive results are not listed. Rule for the calls: active = survival T/C of 150% or more; inactive = T/C below 125% in these data.

System: CD2F1 mice, L1210 leukemia ip, survival T/C
Assay: NCI In Vivo Anticancer Drug Screen. Data for tumor model L1210 Leukemia (intraperitoneal) in CD2F1 (CDF1) mice
Conditions: higher = longer survival
Outline: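 Ratio T/C, where T is the treated-group value and C the vehicle-dosed control value, from mice implanted with a transplantable tumor.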

[1] = endpoint: mean survival time, dose: 50.0 mg/kg/injection, schedule: Q01DX009 (ip), vehicle: saline with Tween-80
[2] = endpoint: mean survival time, dose: 100.0 mg/kg/injection, schedule: Q01DX001 (ip), vehicle: saline with Tween-80
[3] = endpoint: mean survival time, dose: 100.0 mg/kg/injection, schedule: Q01DX009 (ip), vehicle: saline with Tween-80
[4] = endpoint: mean survival time, dose: 100.0 mg/kg/injection, schedule: Q04DX002 (ip), vehicle: saline with Tween-80
[5] = endpoint: mean survival time, dose: 100.0 mg/kg/injection, schedule: Q04DX003 (ip), vehicle: saline with Tween-80
[6] = endpoint: mean survival time, dose: 200.0 mg/kg/injection, schedule: Q01DX009 (ip), vehicle: saline with Tween-80
[7] = endpoint: mean survival time, dose: 200.0 mg/kg/injection, schedule: Q04DX002 (ip), vehicle: saline with Tween-80
[8] = endpoint: mean survival time, dose: 200.0 mg/kg/injection, schedule: Q04DX003 (ip), vehicle: saline with Tween-80
[9] = endpoint: mean survival time, dose: 400.0 mg/kg/injection, schedule: Q01DX001 (ip), vehicle: saline with Tween-80
[10] = endpoint: mean survival time, dose: 400.0 mg/kg/injection, schedule: Q01DX009 (ip), vehicle: saline with Tween-80
[11] = endpoint: mean survival time, dose: 400.0 mg/kg/injection, schedule: Q04DX002 (ip), vehicle: saline with Tween-80
[12] = endpoint: mean survival time, dose: 400.0 mg/kg/injection, schedule: Q04DX003 (ip), vehicle: saline with Tween-80
[13] = endpoint: mean survival time, dose: 25.0 mg/kg/injection, schedule: Q01DX009 (ip), vehicle: saline with Tween-80
[14] = endpoint: mean survival time, dose: 100.0 mg/kg/injection, schedule: Q01DX009 (ip), vehicle: other
[15] = endpoint: mean survival time, dose: 100.0 mg/kg/injection, schedule: Q01DX009 (ip), vehicle: saline
[16] = endpoint: mean survival time, dose: 200.0 mg/kg/injection, schedule: Q01DX009 (ip), vehicle: saline
[17] = endpoint: mean survival time, dose: 400.0 mg/kg/injection, schedule: Q01DX009 (ip), vehicle: saline

Measured: T/C

O=C(/C=C/c1ccccc1)NC(=S)Nc1cc(Cl)ccc1Cl
inactive: [1] 95 % of control | [2] 90 % of control | [3] 112 % of control and 98 % of control and 100 % of control | [4] 95 % of control and 102 % of control | [5] 104 % of control | endpoint: mean survival time, dose: 200.0 mg/kg/injection, schedule: Q01DX001 (ip), vehicle: saline with Tween-80 100 % of control | [6] 97 % of control and 98 % of control and 105 % of control | [7] 95 % of control and 110 % of control | [8] 104 % of control | [9] 105 % of control | [10] 115 % of control and 98 % of control and 100 % of control | [11] 105 % of control and 111 % of control | [12] 106 % of control

Cc1ccc(-c2nc(-c3ccccc3)[nH]c(=O)c2CCO)cc1
inactive: [5] 94 % of control | [8] 92 % of control | [12] 88 % of control

C[C@]12CC[C@H](O)C[C@@H]1CC[C@@H]1[C@@H]2C(=O)C[C@@]2(C)[C@H]1CC[C@]2(O)C(=O)CBr
inactive: endpoint: mean survival time, dose: 100.0 mg/kg/injection, schedule: Q01DX009 (sc), vehicle: steriod suspending solution 97 % of control | endpoint: mean survival time, dose: 100.0 mg/kg/injection, schedule: Q04DX003 (sc), vehicle: steriod suspending solution 97 % of control | endpoint: mean survival time, dose: 200.0 mg/kg/injection, schedule: Q01DX009 (sc), vehicle: steriod suspending solution 94 % of control | endpoint: mean survival time, dose: 200.0 mg/kg/injection, schedule: Q04DX003 (sc), vehicle: steriod suspending solution 95 % of control | endpoint: mean survival time, dose: 400.0 mg/kg/injection, schedule: Q01DX009 (sc), vehicle: steriod suspending solution 90 % of control | endpoint: mean survival time, dose: 400.0 mg/kg/injection, schedule: Q04DX003 (sc), vehicle: steriod suspending solution 95 % of control

C=CC1C[N+]2(SS(=O)(=O)O)CCC1CC2C(O)c1ccnc2ccc(OC)cc12 (stereo not drawn)
inactive: endpoint: mean survival time, dose: 75.0 mg/kg/injection, schedule: Q04DX003 (ip), vehicle: saline 100 % of control | endpoint: mean survival time, dose: 150.0 mg/kg/injection, schedule: Q04DX003 (ip), vehicle: saline 95 % of control

COc1cc([N+](=O)[O-])ccc1NC(=O)NCc1ccccc1
inactive: endpoint: mean survival time, dose: 50.0 mg/kg/injection, schedule: Q04DX002 (ip), vehicle: saline with Tween-80 89 % of control and 94 % of control | [3] 100 % of control | [4] 88 % of control and 96 % of control and 97 % of control | [6] 95 % of control | [7] 93 % of control and 105 % of control | [10] 103 % of control | [11] 93 % of control

COC(=O)CC(CC(=O)OC)N1CC=CC1
inactive: endpoint: mean survival time, dose: 100.0 mg/kg/injection, schedule: Q01DX001 (ip), vehicle: saline 100 % of control | endpoint: mean survival time, dose: 200.0 mg/kg/injection, schedule: Q01DX001 (ip), vehicle: saline 98 % of control | endpoint: mean survival time, dose: 400.0 mg/kg/injection, schedule: Q01DX001 (ip), vehicle: saline 108 % of control

CCOC(=O)c1ccc(NC(=O)N2CCC(CCCc3ccccc3)CC2)cc1
inactive: endpoint: mean survival time, dose: 50.0 mg/kg/injection, schedule: Q01DX001 (ip), vehicle: saline with Tween-80 100 % of control | [2] 88 % of control and 98 % of control | [3] 87 % of control and 91 % of control | [4] 91 % of control and 95 % of control | [5] 98 % of control | [6] 87 % of control and 93 % of control | [7] 91 % of control | [8] 87 % of control | [9] 88 % of control and 94 % of control | [10] 93 % of control | [11] 90 % of control | [12] 90 % of control

CN(C)N=Nc1c(F)cccc1F
inactive: endpoint: mean survival time, dose: 6.25 mg/kg/injection, schedule: Q01DX009 (ip), vehicle: other 98 % of control | endpoint: mean survival time, dose: 12.5 mg/kg/injection, schedule: Q01DX009 (ip), vehicle: other 113 % of control and 93 % of control | endpoint: mean survival time, dose: 12.5 mg/kg/injection, schedule: Q01DX009 (ip), vehicle: saline with Tween-80 98 % of control | endpoint: mean survival time, dose: 25.0 mg/kg/injection, schedule: Q01DX009 (ip), vehicle: other 117 % of control and 100 % of control | [13] 106 % of control | endpoint: mean survival time, dose: 50.0 mg/kg/injection, schedule: Q01DX009 (ip), vehicle: other 91 % of control | [1] 120 % of control | [14] 102 % of control and 104 % of control

O=C(OCC1OC(n2cnc([N+](=O)[O-])n2)C(OC(=O)c2ccccc2)C1OC(=O)c1ccccc1)c1ccccc1 (stereo not drawn)
inactive: endpoint: median survival time, dose: 18.8 mg/kg/injection, schedule: Q01DX005 (ip), vehicle: Klucel (hydroxypropylcellulose) (HPC) 100 % of control | endpoint: median survival time, dose: 37.5 mg/kg/injection, schedule: Q01DX005 (ip), vehicle: Klucel (hydroxypropylcellulose) (HPC) 102 % of control | endpoint: median survival time, dose: 75.0 mg/kg/injection, schedule: Q01DX005 (ip), vehicle: Klucel (hydroxypropylcellulose) (HPC) 97 % of control | endpoint: median survival time, dose: 140.0 mg/kg/injection, schedule: Q01DX005 (ip), vehicle: Klucel (hydroxypropylcellulose) (HPC) 96 % of control

C=CCOc1cccc(OCC=C)c1C
inactive: [15] 102 % of control | [16] 100 % of control | [17] 100 % of control

Cc1cc(OCCOC(=O)Nc2c(Cl)cccc2Cl)cc(C)c1Cl
inactive: [1] 92 % of control | [3] 100 % of control | [6] 107 % of control

O=[N+]([O-])C/C=C(/C=Nc1ccc(Cl)cc1)[N+](=O)[O-]
inactive: [15] 101 % of control | endpoint: mean survival time, dose: 100.0 mg/kg/injection, schedule: Q04DX003 (ip), vehicle: saline 105 % of control | [16] 102 % of control | endpoint: mean survival time, dose: 200.0 mg/kg/injection, schedule: Q04DX003 (ip), vehicle: saline 97 % of control | [17] 96 % of control | endpoint: mean survival time, dose: 400.0 mg/kg/injection, schedule: Q04DX003 (ip), vehicle: saline 97 % of control

CCCCCCCCCCCSSCCCCCCCCCCC
inactive: [14] 101 % of control | endpoint: mean survival time, dose: 200.0 mg/kg/injection, schedule: Q01DX009 (ip), vehicle: other 100 % of control | endpoint: mean survival time, dose: 400.0 mg/kg/injection, schedule: Q01DX009 (ip), vehicle: other 111 % of control

COC(=O)CCC(C)C1CCC2C3C(O)CC4CC(O)CCC4(C)C3CC(O)C12C (stereo not drawn)
inactive: [13] 96 % of control | [1] 93 % of control | [3] 95 % of control and 100 % of control

Cn1c(C[N+](C)(C)C)cc2ccccc21
inactive: endpoint: mean survival time, dose: 50.0 mg/kg/injection, schedule: Q01DX009 (ip), vehicle: saline 90 % of control | [15] 93 % of control
